What was measured:
[1] = system: platinum-resistant ovarian cancer PDXs; assay: IMGN853 with bevacizumab in platinum-resistant ovarian cancer PDX, 102-day study (FIG. 11B); assay type: in vivo, mice; conditions: IMGN853 5 mg/kg QWx2, bevacizumab 5 mg/kg QWx2, alone or combined
From the text: Tumor growth was monitored out to 102 days. * P=0.011; ** P=0.018; ns, not significant (Wilcoxon test, non-adjusted).

[2] = system: IGROV-1 ovarian tumor xenografts; assay: Antitumor activity of IMGN853, bevacizumab and combination in IGROV-1 tumor model (Example 5); assay type: in vivo, SCID mice; conditions: IMGN853 5 mg/kg 1× and/or bevacizumab 5 mg/kg 1×
From the text: All treatments consisted of single doses (1×).
FIG. 4 depicts the results.

[3] = system: platinum-resistant ovarian cancer PDXs; assay: IMGN853 and PLD in platinum-resistant EOC PDX model (FIG. 10C, 10D); assay type: in vivo, SCID mice; conditions: QWx2: IMGN853 5 mg/kg or PLD 4 mg/kg; day 49
Procedure: Data are expressed as mean and SEM for each time point.
Mean values are plotted against vehicle controls.
To extend the in vitro observations, the combination of IMGN853 and PLD was examined in a platinum-resistant EOC PDX model (FIG. 10C). Vehicle-treated animals progressed quickly and were removed from study when tumors reached volumes between 1500-2000 mm^3. QWx2 dosing of IMGN853 (5 mg/kg) inhibited tumor growth by 81% on day 49, and a similar degree of inhibition (83%) was seen when PLD (4 mg/kg) was administered on the same schedule.

IMGN853 was tested, and the antitumor effect [1] was “moderate activity”, the T/C [2] was 20% and the TFS [2] was 0/4. The antitumor activity rating [2] was “active”, the CR ([2]; responders/animals) was 0/4 and the tumor growth inhibition [3] was 81%.

Source: patent US10172875B2, “Therapeutic combinations comprising anti-FOLR1 immunoconjugates” (ImmunoGen, Inc., priority 2015, dated 2019)
